The source of these data is patent US20090048278A1, “Novel Quinazoline-2,4-Diamine Derivatives and Their Use as Modulators of Small-Conductance Calcium-Activated Potassium Channels” (priority 2005, published 2009).

Structures can show the parent of a compound that is named as a salt.

In one data set the target is T1, hSK3 channels (Homo sapiens, UniProt Q9UGI6).
T1 construct: expressed in transfected cells; host or cells: HEK293
Briefly: Whole-cell patch-clamp recording of SK3 current in HEK293 cells expressing hSK3 channels. Type of data set: cell-based. The settings on record: current at −75 mV, free Ca2+ 0.3-0.4 μM, room temperature, read-out: Ki value (concentration required for decreasing the baseline current to 50% of the initial current). As for the experimental part: The ionic current through small-conductance Ca^2+-activated K^+ channels (SK channels, subtype 3) was recorded using the whole-cell configuration of the patch-clamp technique.
HEK293 tissue culture cells expressing hSK3 channels were grown in DMEM (Dulbecco's Modified Eagle Medium) supplemented with 10% FCS (foetal calf serum) at 37° C. in 5% CO2. At 60-80% confluency, cells were harvested by trypsin treatment and seeded on cover slips.
Cells plated on coverslips are placed in a 15 μl perfusion chamber (flowrate ˜1 ml/min) mounted on an inverted microscope placed on a vibration-free table in a grounded Faraday cage. The experiments were performed at room temperature (20-22° C.). […] Data were stored directly on the hard-disk and analysed by IGOR software (Wavemetrics, Lake Oswega, Oreg., USA).
The whole-cell configuration of the patch-clamp technique was applied. […] Cell capacitance was electronically compensated and the resistance between the pipette and the cell interior (the series resistance, R^5) was measured and compensated for. […]
The intracellular (pipette) solution contained: 154 mM KCl, 10 mM HEPES, 10 mM EGTA. Concentrations of CaCl2 and MgCl2 needed to obtain the desired free concentrations of Ca^2+ (0.3-0.4 μM, Mg^2+ always 1 mM) were calculated by EqCal software (Cambridge, UK) and added. […]

One may read the melting point as the temperature, or range, at which the solid turns liquid. In the case of `Clc1ccc(CNc2nc(NCc3ccc(Cl)cc3)c3ccccc3n2)cc1` (as salt: HCl) [Example 1, N^2,N^4-Bis(4-chlorobenzyl)quinazoline-2,4-diamine], the melting point fell in the range of 263 to 264 °C. The same measure, in the same setting: the figure for `Fc1ccc(CNc2nc(NCc3ccc(F)c(F)c3)c3ccccc3n2)cc1F` (as salt: HCl) [Example 2, N^2,N^4-Bis(3,4-difluorobenzyl)quinazoline-2,4-diamine] is 275 to 276 °C.

`Clc1ccc(CNc2nc(NC3CCCc4ccccc43)c3ccccc3n2)cc1` (centres unmarked) (as salt: HCl) [Example 11, N^2-(4-Chlorobenzyl)-N^4-(1,2,3,4-tetrahydronaphthalen-1-yl)quinazoline-2,4-diamine] gave a melting point of 166 to 167 °C.

Regarding `NCc1cccc(CNc2nc(NCc3ccc(F)c(F)c3)c3ccccc3n2)c1` [Example 3, N^2-(3-Aminomethylbenzyl)-N^4-(3,4-difluorobenzyl)quinazoline-2,4-diamine], the melting point lay in the range of 148 to 149 °C. On the same count and under the same terms, for `CN(C)c1ccc(CNc2nc(NCc3ccc(F)c(F)c3)nc3ccccc23)cc1` [Example 5, N^2-(3,4-Difluorobenzyl)-N^4-(4-dimethylaminobenzyl)quinazoline-2,4-diamine] the value was 59 to 60 °C; for `Clc1ccc(CNc2nc(N3CCCCC3c3ccccc3)nc3ccccc23)cc1` (centres unmarked) [Example 6, (4-Chlorobenzyl)-[2-(2-phenylpiperidin-1-yl)quinazolin-4-yl]amine], 86 to 87 °C. On the same count and under the same terms, for `OCCN(Cc1ccccc1)c1nc(NCc2ccc(Cl)cc2)c2ccccc2n1` [Example 7, N^2-Benzyl-N^4-(4-chlorobenzyl)-N^2-(hydroxyethyl)quinazoline-2,4-diamine] the value was 188 to 190.5 °C. `N#CCCN(Cc1ccccc1)c1nc(NCc2ccc(Cl)cc2)c2ccccc2n1` [Example 8, N^2-Benzyl-N^4-(4-chlorobenzyl)-N^2-(cyanoethyl)quinazoline-2,4-diamine]: the IC50 on hSK3 channels worked out at 300 nM.
